Measurements published in the supplement of paper PMC10307832.

Key:
Test in all cases: relative viability (nuclei count vs DMSO), 5 days (fraction); higher = more cells survive
[1] = compound: Nc1ncn([C@H]2C[C@H](O)[C@@H](CO)O2)c(=O)n1 [Decitabine] + O=C(c1cc(Cc2n[nH]c(=O)c3ccccc23)ccc1F)N1CCN(C(=O)C2CC2)CC1 [Olaparib] (partner 8 µM)
How it was run: (§1)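 For relative viability, nuclei counts in treated wells were divided by those in vehicle wells. Lung cancer cell lines had been pin-tool dosed in 1536-well plates the day after seeding and cultured for 5 days, then fixed and stained in one step (final 0.05% Triton X-100, 1% formaldehyde, 1 ug/ml Hoechst) and imaged at 4×. Doses were one drug alone or a fixed anchor-drug dose plus five library-drug doses (not always all listed) in √10 steps, and values are duplicate-plate medians.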

[2] = compound: Nc1ncn([C@H]2C[C@H](O)[C@@H](CO)O2)c(=O)n1 [Decitabine] + C[C@]1(O)C[C@@H](c2nc(-c3ccc4ccc(-c5ccccc5)nc4c3)c3c(N)nccn32)C1 [Linsitinib] (partner 1 µM)
How it was run: as §1

[3] = compound: O=C(C[C@H]1NCCC[C@@H]1O)Cn1cnc2cc(Br)c(Cl)cc2c1=O (racemic) [Halofuginone] + CC(=O)Nc1cccc(-n2c(=O)n(C3CC3)c(=O)c3c(Nc4ccc(I)cc4F)n(C)c(=O)c(C)c32)c1 [Trametinib] (partner 0.02 µM)
How it was run: as §1

[4] = compound: COc1cc2c(Oc3ccc4[nH]c(C)cc4c3F)ncnc2cc1OCCCN1CCCC1 [Cediranib] + C[C@]1(O)C[C@@H](c2nc(-c3ccc4ccc(-c5ccccc5)nc4c3)c3c(N)nccn32)C1 [Linsitinib] (partner 1 µM)
How it was run: as §1

Cell Line | relative viability ([1]; first compound 0.04 µM) | relative viability ([1]; first compound 0.1265 µM) | relative viability ([1]; first compound 0.4 µM) | relative viability ([1]; first compound 4 µM) | relative viability ([2]; first compound 0.04 µM) | relative viability ([2]; first compound 0.1265 µM) | relative viability ([2]; first compound 0.4 µM) | relative viability ([2]; first compound 1.265 µM) | relative viability ([2]; first compound 4 µM) | relative viability ([3]; first compound 0.001 µM) | relative viability ([3]; first compound 0.003162 µM) | relative viability ([3]; first compound 0.01 µM) | relative viability ([3]; first compound 0.03162 µM) | relative viability ([3]; first compound 0.1 µM) | relative viability ([4]; first compound 0.04 µM) | relative viability ([4]; first compound 0.1265 µM) | relative viability ([4]; first compound 0.4 µM) | relative viability ([4]; first compound 1.265 µM) | relative viability ([4]; first compound 4 µM) | relative viability ([1]; first compound 1.265 µM)
201T | 0.555 | 0.494 | 0.406 | 0.781 | 1.06 | 1.16 | 1.3 | 1.1 | 0.924 | 0.71 | 0.715 | 0.703 | 0.723 | 0.663 | 1.11 | 1.18 | 0.941 | 1.01 | 0.974 | 
A549 | 0.15 | 0.112 | 0.049 | 0.0404 | 0.535 | 0.731 | 0.554 | 0.299 | 0.151 |  |  |  |  |  | 0.723 | 0.644 | 0.543 | 0.633 | 0.471 | 0.0246
A-427 | 0.474 | 0.443 | 0.281 | 0.217 | 0.807 | 0.674 | 0.446 | 0.368 | 0.275 | 0.823 | 0.787 | 0.742 | 0.714 | 0.634 | 1.17 |  | 0.984 | 1.07 | 1.17 | 0.248
ABC-1 |  | 0.616 | 0.77 | 0.573 | 0.705 | 0.677 | 0.639 | 0.611 | 0.523 |  |  |  |  |  | 0.656 | 0.97 | 0.799 |  | 0.786 | 0.473
BEN | 0.666 | 0.595 | 0.457 | 0.409 | 0.994 | 0.809 | 0.671 | 0.46 | 0.43 | 1.14 | 1.11 | 1.07 | 1.02 | 0.714 | 1.16 | 0.799 | 0.82 | 0.9 | 0.647 | 0.43
CAL-12T | 0.438 | 0.412 | 0.257 | 0.227 | 0.657 | 0.805 | 0.494 | 0.451 | 0.347 | 0.352 | 0.414 | 0.359 | 0.329 | 0.196 | 0.95 | 0.864 | 0.691 | 0.865 | 0.714 | 0.266
COR-L23 | 0.166 | 0.181 | 0.177 | 0.119 | 0.647 | 0.482 | 0.374 | 0.272 | 0.19 | 0.681 | 0.641 | 0.592 | 0.598 | 0.0948 | 1.08 | 0.871 | 0.939 | 0.806 | 1.14 | 0.143
COR-L 105 | 0.609 | 0.546 | 0.524 | 0.403 | 1.02 | 0.768 | 0.738 | 0.506 | 0.486 | 0.446 | 0.492 | 0.481 | 0.421 | 0.383 |  | 0.909 | 0.946 | 0.972 | 0.938 | 0.505
Calu-6 | 0.234 | 0.285 | 0.182 | 0.14 | 0.807 | 0.682 | 0.494 | 0.33 | 0.193 |  |  |  |  |  | 0.881 | 0.971 | 0.938 | 0.854 | 1.06 | 0.166
ChaGo-K-1 | 0.28 | 0.28 | 0.222 | 0.242 |  |  |  |  |  | 0.873 | 0.899 | 0.924 | 0.887 | 0.79 |  |  |  |  |  | 0.198
EBC-1 | 0.318 | 0.197 | 0.187 | 0.18 | 0.693 | 0.704 | 0.417 | 0.316 | 0.247 |  |  |  |  |  | 1.14 | 1.05 | 0.882 | 0.609 | 0.802 | 0.157
EKVX | 0.551 | 0.454 | 0.322 | 0.232 | 0.792 | 0.854 | 0.657 | 0.386 | 0.306 | 0.383 | 0.358 | 0.339 | 0.37 | 0.314 | 1.05 | 1.03 | 0.889 | 1 | 0.86 | 0.252
EMC-BAC-2 |  | 0.405 | 0.371 | 0.294 | 0.797 | 0.81 | 0.652 | 0.612 | 0.583 | 1.02 | 0.913 | 0.83 | 0.85 | 0.321 | 0.872 | 0.832 | 0.799 | 0.777 | 0.837 | 0.298
EPLC-272H | 0.32 | 0.255 |  | 0.337 | 0.811 | 0.939 |  | 0.596 | 0.548 | 0.312 | 0.273 | 0.285 | 0.326 | 0.247 | 1.17 |  | 1.16 | 1.18 | 1.29 | 0.15
H3255 | 0.487 | 0.469 | 0.415 | 0.378 | 0.488 | 0.88 | 0.551 | 0.554 | 0.468 | 0.746 | 0.73 | 0.543 | 0.716 | 0.517 | 1.04 | 1.04 | 0.89 | 0.898 | 0.912 | 0.43
HARA | 0.379 | 0.248 | 0.28 | 0.168 | 0.896 | 0.776 | 0.69 | 0.382 | 0.312 | 0.918 | 1.27 | 0.639 | 0.968 | 0.221 | 0.916 | 1.14 | 0.96 | 0.955 | 0.975 | 0.147
HCC-15 | 0.472 | 0.363 | 0.253 | 0.168 | 0.777 | 0.772 | 0.562 | 0.51 | 0.434 | 0.415 | 0.412 | 0.399 | 0.368 | 0.31 | 0.873 |  | 0.793 | 0.947 | 1.02 | 0.178
HCC-44 | 0.808 | 0.738 | 0.627 | 0.757 | 0.686 | 0.644 | 0.495 | 0.292 | 0.351 | 1.04 | 1.1 | 1.05 | 1.13 | 0.966 | 0.7 |  | 0.636 | 0.654 | 0.729 | 0.739
